Assay results from patent US7388006B2, “Non-steroidal progesting” (Bayer Schering Pharma AG, priority 2002, dated 2008).

Assays:
[1] = system: PR-A; type: cell-based; conditions: PR-A efficacy minus PR-B efficacy
Experimental: The method for screening for PR isoform-specific progestins according to the present invention is carried out with first and second SK-N-MC cells stably transfected with a plasmid expressing the HPR-A (first cells) or the hPR-B (second cells) and the LUC reporter gene linked to the hormonally responsive MTV promoter.
The cells are cultured in Minimum Essential Medium with Earl's Salts (S-MEM, without L-glutamine; Gibco BRL, no. 21090-022), supplemented with 10% fetal calf serum (FCS), penicillin 100U/streptomycin 100 μg/ml (Biochrom, no. A2213), L-glutamine 4 mmol/l (Gibco BRL, no. 25030-024), sodium pyruvate 1 mmol/l (Biochrom, no. L0473) and 1×non-essential amino acids (Biochrom, no. K0293) at a temperature of 37° C. and in an atmosphere of 5% carbon dioxide.
For the transcription assay, the cells are seeded onto 96-well dishes (2×10^4 cells/dish) and cultured in a medium as described above, with the exception that the FCS is replaced by a 3% charcoal stripped FCS. 48 hours later, cells are contacted with prediluted test compounds. For determination of agonistic activity, cells are cultured in the presence of 6 increasing concentrations (10^−6 to 10^−11 mol/l) of test progestins. As a positive control for reporter gene induction cells are treated with 10^−6 to 10^−11 mol/l R5020 (promegestone). As a negative control for reporter gene induction, cells are cultured in 1% ethanol.
After incubation with test progestins for 24 hours, the medium is removed and cells are lysed with 20 μl of lysis buffer (Luciferase Assay System E 153A; Promega) and under agitation of the plate for 101 min. After addition of 30 μl of luciferase reagent (Luciferase Assay System E 151A+152A; Promega) within 30 seconds per plate, the activity of the luciferase reporter gene product is determined in the cell lysates by means of a Microlite ML 3000 microtiter plate luminometer (Dynatech) in cycle mode.
Evaluation of the response gives the efficacy [%], and evaluation of the EC50s values gives the potency [nM]. Calculation of the agonistic activity is conducted as follows:
The LUC activity [%] for the measured data points is calculated as follows:
[formula] wherein CI=100% stimulation (R5020, 10^−7 mol/l) and CO=0% stimulation (ethanol, 1%).
Thus, the efficacy [%] is calculated according to: […]
The potency [nM], i.e. the EC50, is determined graphically.

[2] = system: rat mammary epithelium; assay: MIB-5 immunohistochemistry, proliferation of the mammary epithelium; type: in vivo; conditions: 0.3 mg/kg/d, FIG. 2
Experimental: In order to determine the effects of test progestins according to the present invention, in particular compound ((+)-1), in mammary gland differentiation and proliferation, premature female rats (Wistar Han, SPF) are ovariectomized at the age of 21 days, 4 to 6 days before treatment start. The animals are treated for 6 days with standard estrogen (estrone (E1), 70 μg/kg) and the test progestin ((+)-1) (application volume: 0.1 ml/50 g body weight; vehicle: benzylbenzoate/castor oil (1+4 v/v); subcutaneous). Control groups are e.g.: vehicle, estrone without progestin, estradiol together with a known progestin, e.g. R5020 (promegestone). After the 6-day treatment the animals are killed with carbon dioxide.
For the whole mount staining, animals are shaved in the left abdominal inguinal mammary region, which is cut from the body together with the skin. For the histological/immunohistochemical analyses the right abdominal inguinal mammary gland is cut from the body together with the connective-tissue adhered thereto and fixed in 3.7% formalin in PBS (phosphate buffer saline; without Ca^2+/Mg^2+).
For a more detailed evaluation of the proliferation of the mammary epithelium, cells are stained with the proliferation marker MIB-5 as follows (cf. FIG. 2): Mammary glands are fixed in 4% formaldehyde/PBS for 24 h and embedded in paraffm. 4 μm sections are spread on slides, deparaffinized, treated with microwaves for 10 min. in citrate buffer pH 6.0 and rinsed with PBS. Slides are then blocked with 3% H2O2/methanol for 15 min., Blockingkit (Vektor, no. SP-2001) for 10 min. and rat serum (Sigma, no. S-7648) diluted 1:2 in PBS for 30 min to reduce nonspecific staining and rinsed in PBS. Slides are incubated for 1 hour with monoclonal antibody MIB-5 (Dianova, no. Dia-5055), which is specific for the rat Ki-67 antigen (1:200 diluted in PBS/0.2% BSA). […]
In order to characterize a test compound, the percentage of MIB-5 stained mammary epithelium cells is determined. […]

[3] = system: pregnancy in ovariectomized rats; assay: Pregnancy maintenance test in rat; type: in vivo; conditions: ovariectomized pregnant rats, with estrone
From the text: In rats, castration induces termination of pregnancy. Progestins (combined with estrogens) are capable of maintaining pregnancy in castrated animals. However, the degree of pregnancy maintenance in castrated rats is optimal only in a defined dose range. Therefore, higher as well as lower doses generally induce a weaker effect. Accompanying treatment with defined doses of estrone (E1) increases the pregnancy maintaining effect of progestins.
Pregnant rats (Wistar Han, SPF) of 190 to 220 g (5 to 8 animals per dose) are ovariectomized on day 8 of pregnancy, 2 hours after the first substance administration. From day 8 to day 14, rats are daily treated with test progestin in combination with a standard dose of E1. One day later, animals are killed with carbon dioxide. For each animal, the number of living and dead fetuses is determined according to the heartbeat of the embryos. In case of empty uteri, the number of implantation sites is determined by means of staining with a 10% ammonium sulfide solution.
S.c. (subcutaneous) application: The test progestin is dissolved in benzyl benzoate/castor oil (1+4 v/v), and the daily dose is administered in a volume of 1 ml/kg body weight.
P.o. (peroral) application: The test progestin is suspended in a carrier liquid (85 mg Myrj^R in 100 ml 0.9% w/v NaCl solution), and the daily dose is administered in a volume of 2 ml/kg body weight.
I.p. (intraperitoneal) application: The test progestin is dissolved in propylene glycol and charged in miniature osmotic pumps (type 2001, 1.0 μl/h, 7 days), which are placed in the abdominal cavity of the rat.
The standard dose of estrone is 0.005 mg/kg body weight s.c. and is dissolved in benzyl benzoate/castor oil ([…]).
It is determined the pregnancy maintenance per animal [%], the pregnancy maintenance per dose (median of single values) and the EC50 (dose, at which pregnancy is maintained in 50% of the animals; 100% corresponds to control animals that are not ovariectomized). The results of the test are further discussed below in c).

Cc1noc(=O)c2ccc(NC(=O)C(O)(CC3(c4cccc(C(F)(F)F)c4F)CC3)C(F)(F)F)cc12 (single isomer, unassigned; (+)) [((+)-2), (+)-6-{2-hydroxy-3-[1-(2-fluoro-3-trifluoromethylphenyl)-cyclopropyl]-2-trifluoro-methyl-propionylamino}-4-methyl-2,3-benzoxazin-1-one]
Δ agonism efficacies (A-B) [1]: 32

Cc1noc(=O)c2ccc(NC(=O)C(C)(O)CC3(c4cccc(C(F)(F)F)c4)CC3)cc12 (single isomer, unassigned; (+)) [((+)-3), (+)-6-{2-hydroxy-3-[1-(3-trifluoromethylphenyl)-cyclopropyl]-2-methyl-propionylamino}-4-methyl-2,3-benzoxazin-1-one]
Δ agonism efficacies (A-B) [1]: 23

O=C1OCc2cc(NC(=O)C(O)(CC3(c4cccc(C(F)(F)F)c4F)CC3)C(F)(F)F)ccc21 (single isomer, unassigned; (+)) [((+)-4), (+)-5-{2-hydroxy-3-[1-(2-fluoro-3-trifluoromethylphenyl)-cyclopropyl]-2-trifluoromethyl-propionylamino}-phthalide]
Δ agonism efficacies (A-B) [1]: 18

Cc1noc(=O)c2ccc(NC(=O)C(C)(O)CC3(c4cccc(C(F)(F)F)c4)CC3)cc12 (single isomer, unassigned; (-)) [((−)-3), (−)-6-{2-Hydroxy-3-[1-(3-trifluoromethylphenyl)-cyclopropyl]-2-methyl-propionylamino}-4-methyl-2,3-benzoxazin-1-one]
melting point: 129 to 130 °C

CCC(=O)[C@@]1(C)CC[C@H]2[C@@H]3CCC4=CC(=O)CCC4=C3CC[C@@]21C [R5020, promegestone, reference compound]
MIB-5 positive cells [2]: ~42%
Maintenance of pregnancy (rat) [EC50] [3]: 0.1 mg/kg/day
